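Protocol summary: plate cells (96-well), add compound at 5 concentrations, incubate 48 h, interpolate endpoints linearly. Abbreviation: GI50, concentration required for 50% inhibition of growth.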 Active and inactive are the calls of the source. No stated cut-off is given here; in the data, active = GI50 up to about 1.1 µM and inactive = higher.
Tests used:
Assay in all cases: NCI-60 cell line screen, 48 h
786-0 = test system: 786-0
CCRF-CEM = test system: CCRF-CEM
HCC 2998 = test system: HCC 2998
HOP-62 = test system: HOP-62
MDA-MB-435 = test system: MDA-MB-435
MOLT-4 = test system: MOLT-4
NCI-H460 = test system: NCI-H460
NCI-H522 = test system: NCI-H522
NCI/ADR-RES = test system: NCI/ADR-RES
OVCAR-5 = test system: OVCAR-5
OVCAR-8 = test system: OVCAR-8
PC-3 = test system: PC-3
RXF 393 = test system: RXF 393
SF-295 = test system: SF-295
SK-MEL-28 = test system: SK-MEL-28
SR = test system: SR
T47D = test system: T47D
TK-10 = test system: TK-10
UACC-257 = test system: UACC-257
HL-60 = test system: HL-60

Measured: GI50

CCc1ccc2c(c1)/C(=C1/Nc3ccccc3C1=O)C(=O)N2
inactive: 786-0 5.78 µM | CCRF-CEM 36.1 µM | HCC 2998 15.7 µM | HOP-62 14.2 µM | MDA-MB-435 25.5 µM | MOLT-4 19.2 µM | NCI-H460 23.3 µM | NCI-H522 19.5 µM | NCI/ADR-RES 28.7 µM | OVCAR-5 44.9 µM | OVCAR-8 7.46 µM | PC-3 14.5 µM | RXF 393 15.1 µM | SF-295 20.2 µM | SK-MEL-28 96.6 µM | SR 14.1 µM | T47D 4.65 µM | TK-10 17 µM | UACC-257 30.5 µM

Cc1ccc(S(=O)(=O)NN=C2C(C)CC(C(C)(C)C)CC2C)cc1 (stereo not given)
inactive: 786-0 17.4 µM | CCRF-CEM 20 µM | HCC 2998 17.7 µM | HL-60 25.9 µM | HOP-62 16.4 µM | MDA-MB-435 20 µM | MOLT-4 20.6 µM | NCI-H460 18.8 µM | NCI-H522 18.6 µM | NCI/ADR-RES 31.6 µM | OVCAR-5 17.5 µM | OVCAR-8 24.1 µM | PC-3 18.8 µM | SF-295 18.1 µM | SK-MEL-28 20 µM | SR 26.8 µM | T47D 21.7 µM | TK-10 26.4 µM | UACC-257 19.1 µM

Cc1cc2nc(N3C(=O)/C(=C/c4ccc(N(C)C)cc4)N=C3c3ccccc3)sc2cc1C
inactive: 786-0 20.5 µM | CCRF-CEM 11.3 µM | HCC 2998 18.9 µM | HL-60 16.9 µM | HOP-62 > 100 µM | MDA-MB-435 7.46 µM | MOLT-4 1.14 µM | NCI-H460 23 µM | NCI/ADR-RES 28.6 µM | OVCAR-5 22.9 µM | OVCAR-8 32.3 µM | PC-3 15.9 µM | RXF 393 18.5 µM | SF-295 33.6 µM | SK-MEL-28 51.9 µM | SR 6.05 µM | T47D 31.4 µM | TK-10 58.9 µM | UACC-257 27.2 µM

CC12CCCC(O)C1CCC1=CC3(CCC12)SCCS3 (stereo not given)
inactive: 786-0 > 10 µM | CCRF-CEM 5.83 µM | HCC 2998 > 10 µM | HOP-62 > 10 µM | MDA-MB-435 > 10 µM | NCI-H522 > 10 µM | NCI/ADR-RES > 10 µM | OVCAR-8 > 10 µM | PC-3 > 10 µM | SF-295 > 10 µM | SK-MEL-28 > 10 µM | SR > 10 µM | T47D > 10 µM | TK-10 > 10 µM | UACC-257 > 10 µM

COC(=O)C1(CCCCl)CCCN1C(=O)OC(C)(C)C (stereo not given)
inactive: 786-0 > 100 µM | CCRF-CEM 37.5 µM | HCC 2998 > 100 µM | HOP-62 > 100 µM | MDA-MB-435 > 100 µM | NCI-H460 > 100 µM | NCI/ADR-RES > 100 µM | OVCAR-5 > 100 µM | PC-3 > 100 µM | RXF 393 > 100 µM | SF-295 > 100 µM | SK-MEL-28 > 100 µM | SR 10.5 µM | T47D > 100 µM | TK-10 > 100 µM | UACC-257 > 100 µM

CCOC(=O)c1nc2ccc(C(F)(F)F)cc2nc1NCc1ccc(OC)cc1
inactive: 786-0 > 100 µM | CCRF-CEM > 100 µM | HOP-62 98.9 µM | MDA-MB-435 > 100 µM | MOLT-4 31.3 µM | NCI-H460 28 µM | NCI-H522 11.9 µM | NCI/ADR-RES 68.4 µM | OVCAR-5 > 100 µM | OVCAR-8 > 100 µM | PC-3 56.6 µM | RXF 393 > 100 µM | SF-295 > 100 µM | SR 28.2 µM | T47D 80.7 µM | TK-10 71.6 µM | UACC-257 74 µM

O=C(O)c1ccc(Nc2ccnc3cc(Cl)ccc23)cc1O
inactive: 786-0 > 100 µM | CCRF-CEM > 100 µM | HCC 2998 39.6 µM | HL-60 > 100 µM | HOP-62 45.7 µM | MDA-MB-435 > 100 µM | MOLT-4 > 100 µM | NCI-H460 > 100 µM | NCI-H522 > 100 µM | NCI/ADR-RES > 100 µM | OVCAR-5 > 100 µM | OVCAR-8 > 100 µM | PC-3 > 100 µM | RXF 393 > 100 µM | SF-295 > 100 µM | SK-MEL-28 > 100 µM | T47D > 100 µM | TK-10 61.4 µM | UACC-257 > 100 µM

O=C(NC/C(Cl)=C/Cl)Nc1c2ccccc2nc2ccccc12
inactive: 786-0 33.3 µM | HCC 2998 86.3 µM | HOP-62 > 100 µM | MDA-MB-435 > 100 µM | MOLT-4 29.3 µM | NCI-H460 60.3 µM | NCI-H522 > 100 µM | NCI/ADR-RES 52 µM | OVCAR-5 99.3 µM | OVCAR-8 56.4 µM | PC-3 > 100 µM | RXF 393 > 100 µM | SF-295 > 100 µM | SK-MEL-28 > 100 µM | SR 20.5 µM | T47D 71.1 µM | TK-10 > 100 µM | UACC-257 78.9 µM

Cc1nnc2ccccc2c1O
inactive: 786-0 > 100 µM | HOP-62 > 100 µM | MDA-MB-435 > 100 µM | MOLT-4 6.34 µM | NCI-H460 > 100 µM | NCI-H522 > 100 µM | NCI/ADR-RES > 100 µM | OVCAR-5 > 100 µM | OVCAR-8 > 100 µM | PC-3 > 100 µM | RXF 393 > 100 µM | SF-295 > 100 µM | SK-MEL-28 > 100 µM | SR 25.9 µM | T47D > 100 µM | TK-10 > 100 µM | UACC-257 > 100 µM

Cn1c(=O)c2c(nc3n2CCC(=O)N3CCCCl)n(C)c1=O
inactive: 786-0 > 100 µM | CCRF-CEM > 100 µM | HCC 2998 > 100 µM | HL-60 > 100 µM | HOP-62 > 100 µM | MDA-MB-435 > 100 µM | MOLT-4 > 100 µM | NCI-H460 > 100 µM | NCI/ADR-RES > 100 µM | OVCAR-5 > 100 µM | OVCAR-8 > 100 µM | PC-3 > 100 µM | SF-295 > 100 µM | SK-MEL-28 > 100 µM | SR > 100 µM | T47D > 100 µM | TK-10 > 100 µM | UACC-257 > 100 µM

CC(=O)NC(Cc1c[nH]c2ccccc12)C(=O)O (stereo not given)
inactive: 786-0 > 100 µM | CCRF-CEM > 100 µM | HL-60 > 100 µM | HOP-62 > 100 µM | MDA-MB-435 > 100 µM | NCI-H460 > 100 µM | NCI-H522 > 100 µM | NCI/ADR-RES > 100 µM | OVCAR-5 > 100 µM | OVCAR-8 > 100 µM | PC-3 > 100 µM | RXF 393 > 100 µM | SF-295 > 100 µM | SK-MEL-28 > 100 µM | SR > 100 µM | T47D > 100 µM | TK-10 > 100 µM | UACC-257 26.2 µM

O=[N+]([O-])C(=C(N1CCOCC1)N1CCOCC1)/C(Cl)=C(\Cl)[N+](=O)[O-]
inactive: 786-0 3.69 µM | CCRF-CEM 2.65 µM | HCC 2998 20.4 µM | HOP-62 15.7 µM | MDA-MB-435 10.3 µM | MOLT-4 17.2 µM | NCI-H460 25.2 µM | NCI-H522 1.48 µM | NCI/ADR-RES 21.4 µM | OVCAR-5 14.6 µM | PC-3 16.4 µM | RXF 393 1.77 µM | SF-295 18 µM | SK-MEL-28 14.3 µM | SR 8.77 µM | T47D 1.96 µM | TK-10 1.99 µM | UACC-257 5.55 µM

Cc1ccc(S(=O)(=O)N/N=C2/CC3CCC4CC2CC34)cc1 (stereo not given)
inactive: 786-0 > 100 µM | CCRF-CEM > 100 µM | HCC 2998 > 100 µM | HL-60 > 100 µM | HOP-62 > 100 µM | MDA-MB-435 > 100 µM | MOLT-4 > 100 µM | NCI-H460 > 100 µM | NCI-H522 > 100 µM | NCI/ADR-RES > 100 µM | OVCAR-5 > 100 µM | OVCAR-8 > 100 µM | PC-3 > 100 µM | SF-295 > 100 µM | SK-MEL-28 > 100 µM | SR > 100 µM | T47D 81.1 µM | TK-10 > 100 µM | UACC-257 > 100 µM

C1CSCCSS[C@@H]2CCCCC2SC1 (stereo not given in full)
inactive: 786-0 > 100 µM | CCRF-CEM > 100 µM | HCC 2998 > 100 µM | HL-60 56.6 µM | HOP-62 > 100 µM | MDA-MB-435 > 100 µM | MOLT-4 > 100 µM | NCI-H460 > 100 µM | NCI-H522 > 100 µM | NCI/ADR-RES > 100 µM | OVCAR-5 > 100 µM | OVCAR-8 > 100 µM | PC-3 > 100 µM | SF-295 > 100 µM | SK-MEL-28 > 100 µM | SR > 100 µM | T47D > 100 µM | TK-10 > 100 µM | UACC-257 > 100 µM

O=C1c2cccc([N+](=O)[O-])c2C(=O)N1c1ncn[nH]1
inactive: 786-0 58.1 µM | CCRF-CEM > 100 µM | HL-60 > 100 µM | HOP-62 38.9 µM | MDA-MB-435 > 100 µM | MOLT-4 > 100 µM | NCI-H460 > 100 µM | NCI-H522 > 100 µM | NCI/ADR-RES > 100 µM | OVCAR-5 > 100 µM | OVCAR-8 79.3 µM | PC-3 > 100 µM | RXF 393 63.2 µM | SF-295 51.5 µM | SK-MEL-28 > 100 µM | SR > 100 µM | T47D > 100 µM | TK-10 27.2 µM | UACC-257 > 100 µM

— ChEMBL document CHEMBL1201862, “PubChem BioAssay data set” (2004)
